Measured values taken from PubChem BioAssay (NCI).
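Dose response: 5 concentrations. Exposure: 48 h. Format: 96-well plates. Endpoint: linear interpolation; highest concentration if not reached. At the TGI there is no net growth.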

Key:
Experiment in all cases: growth of human tumour cells (NCI), 48 h
MDA-N = tested on: MDA-N
HL-60(TB) leukemia = tested on: HL-60(TB) leukemia
COLO 205 colon = tested on: COLO 205 colon
SK-OV-3 ovarian = tested on: SK-OV-3 ovarian
SK-MEL-2 melanoma = tested on: SK-MEL-2 melanoma
BT-549 breast = tested on: BT-549 breast
SK-MEL-28 melanoma = tested on: SK-MEL-28 melanoma
OVCAR-8 ovarian = tested on: OVCAR-8 ovarian
TK-10 renal = tested on: TK-10 renal
HOP-92 NSCLC = tested on: HOP-92 NSCLC
RXF 393 renal = tested on: RXF 393 renal
T-47D breast = tested on: T-47D breast
SK-MEL-5 melanoma = tested on: SK-MEL-5 melanoma
SNB-19 CNS = tested on: SNB-19 CNS
CCRF-CEM leukemia = tested on: CCRF-CEM leukemia
NCI-H23 lung = tested on: NCI-H23 lung
HS 578T breast = tested on: HS 578T breast
KM12 colon = tested on: KM12 colon
SF-539 CNS = tested on: SF-539 CNS
NCI/ADR-RES ovarian = tested on: NCI/ADR-RES ovarian
HT29 colon = tested on: HT29 colon
MALME-3M melanoma = tested on: MALME-3M melanoma
HCC-2998 colon = tested on: HCC-2998 colon
HCT-116 colon = tested on: HCT-116 colon
NCI-H226 lung = tested on: NCI-H226 lung
MCF7 breast = tested on: MCF7 breast
NCI-H460 lung = tested on: NCI-H460 lung
UACC-62 melanoma = tested on: UACC-62 melanoma
RPMI-8226 leukemia = tested on: RPMI-8226 leukemia
SN12C renal = tested on: SN12C renal
A498 renal = tested on: A498 renal
K-562 leukemia = tested on: K-562 leukemia
MDA-MB-435 = tested on: MDA-MB-435
HOP-62 NSCLC = tested on: HOP-62 NSCLC
M14 melanoma = tested on: M14 melanoma
MOLT-4 leukemia = tested on: MOLT-4 leukemia
SF-268 CNS = tested on: SF-268 CNS
NCI-H522 lung = tested on: NCI-H522 lung
OVCAR-4 ovarian = tested on: OVCAR-4 ovarian
DU-145 prostate = tested on: DU-145 prostate
U251 CNS = tested on: U251 CNS
SR leukemia = tested on: SR leukemia
OVCAR-3 ovarian = tested on: OVCAR-3 ovarian
CAKI-1 renal = tested on: CAKI-1 renal
UO-31 renal = tested on: UO-31 renal
UACC-257 melanoma = tested on: UACC-257 melanoma
EKVX NSCLC = tested on: EKVX NSCLC
LOX IMVI melanoma = tested on: LOX IMVI melanoma
786-0 renal = tested on: 786-0 renal
OVCAR-5 ovarian = tested on: OVCAR-5 ovarian
HCT-15 colon = tested on: HCT-15 colon
SF-295 CNS = tested on: SF-295 CNS
ACHN renal = tested on: ACHN renal
MDA-MB-231 breast = tested on: MDA-MB-231 breast
SW-620 colon = tested on: SW-620 colon
A549 NSCLC = tested on: A549 NSCLC
SNB-75 CNS = tested on: SNB-75 CNS
IGROV1 ovarian = tested on: IGROV1 ovarian

Measured: TGI

CC(C)(C)OC(=O)Nc1nnc(S(N)(=O)=O)s1
> 100 µM: MDA-N | HL-60(TB) leukemia | COLO 205 colon | SK-OV-3 ovarian | SK-MEL-2 melanoma | BT-549 breast | SK-MEL-28 melanoma | OVCAR-8 ovarian | TK-10 renal | HOP-92 NSCLC | RXF 393 renal | T-47D breast | SK-MEL-5 melanoma | SNB-19 CNS | CCRF-CEM leukemia | NCI-H23 lung | HS 578T breast | KM12 colon | SF-539 CNS | NCI/ADR-RES ovarian | HT29 colon | MALME-3M melanoma | HCC-2998 colon | HCT-116 colon | NCI-H226 lung | MCF7 breast | NCI-H460 lung | UACC-62 melanoma | RPMI-8226 leukemia | SN12C renal | A498 renal | K-562 leukemia | MDA-MB-435 | HOP-62 NSCLC | M14 melanoma | MOLT-4 leukemia | SF-268 CNS | NCI-H522 lung | OVCAR-4 ovarian | DU-145 prostate | U251 CNS | SR leukemia | OVCAR-3 ovarian | CAKI-1 renal | UO-31 renal | UACC-257 melanoma | EKVX NSCLC | LOX IMVI melanoma | 786-0 renal | OVCAR-5 ovarian | HCT-15 colon | SF-295 CNS | ACHN renal | MDA-MB-231 breast | SW-620 colon | A549 NSCLC

Cc1nn2c(C(=O)N/N=C/c3ccccc3O)c(C)nc2s1
90.6 µM: OVCAR-3 ovarian
> 100 µM: MDA-N | HL-60(TB) leukemia | COLO 205 colon | BT-549 breast | SK-MEL-28 melanoma | OVCAR-8 ovarian | TK-10 renal | HOP-92 NSCLC | RXF 393 renal | T-47D breast | SK-MEL-5 melanoma | SNB-19 CNS | CCRF-CEM leukemia | NCI-H23 lung | HS 578T breast | KM12 colon | SF-539 CNS | NCI/ADR-RES ovarian | HT29 colon | MALME-3M melanoma | HCC-2998 colon | HCT-116 colon | NCI-H226 lung | MCF7 breast | NCI-H460 lung | UACC-62 melanoma | SN12C renal | A498 renal | K-562 leukemia | MDA-MB-435 | HOP-62 NSCLC | M14 melanoma | MOLT-4 leukemia | SF-268 CNS | NCI-H522 lung | OVCAR-4 ovarian | DU-145 prostate | U251 CNS | SNB-75 CNS | CAKI-1 renal | UO-31 renal | UACC-257 melanoma | EKVX NSCLC | LOX IMVI melanoma | 786-0 renal | OVCAR-5 ovarian | HCT-15 colon | SF-295 CNS | ACHN renal | MDA-MB-231 breast | IGROV1 ovarian | SW-620 colon | A549 NSCLC

COc1cc(-c2cc(=O)c3c(OC)c(OC)c(OC)c(OC)c3o2)cc(OC)c1OC
40 µM: COLO 205 colon
83.1 µM: LOX IMVI melanoma
70.5 µM: T-47D breast
51.1 µM: NCI-H522 lung
84 µM: NCI/ADR-RES ovarian
> 100 µM: MDA-N | SK-OV-3 ovarian | SK-MEL-2 melanoma | BT-549 breast | SK-MEL-28 melanoma | OVCAR-8 ovarian | TK-10 renal | RXF 393 renal | SNB-19 CNS | CCRF-CEM leukemia | NCI-H23 lung | HS 578T breast | SF-539 CNS | HT29 colon | MALME-3M melanoma | HCC-2998 colon | HCT-116 colon | NCI-H226 lung | MCF7 breast | NCI-H460 lung | RPMI-8226 leukemia | SN12C renal | K-562 leukemia | MDA-MB-435 | HOP-62 NSCLC | M14 melanoma | MOLT-4 leukemia | SF-268 CNS | OVCAR-4 ovarian | DU-145 prostate | U251 CNS | SR leukemia | SNB-75 CNS | OVCAR-3 ovarian | CAKI-1 renal | UO-31 renal | UACC-257 melanoma | EKVX NSCLC | 786-0 renal | OVCAR-5 ovarian | HCT-15 colon | SF-295 CNS | ACHN renal | MDA-MB-231 breast | IGROV1 ovarian | SW-620 colon | A549 NSCLC
89.5 µM: UACC-62 melanoma
85.2 µM: A498 renal
39.5 µM: SK-MEL-5 melanoma
86.6 µM: HOP-92 NSCLC
67.5 µM: HL-60(TB) leukemia
